Experimental data published in article PMC7897990, “TriTOX: A novel Trichomonas vaginalis assay platform for high-throughput screening of compound libraries” (International Journal for Parasitology: Drugs and Drug …, 2021).
Where two headings read alike, the source gives them in different places.

Experiments:
[1] = tested on: Trichomonas vaginalis G3 trophozoites; settings: parasite screen at 1 µg/mL; for T.vaginalis_%inb_Rep1: replicate 1; for T.vaginalis_%inb_Rep2: replicate 2; for T.vaginalis_Absorbance_Rep1: replicate 1, raw absorbance; for T.vaginalis_Absorbance_Rep2: replicate 2, raw absorbance
[2] = tested on: nontumorigenic neonatal foreskin fibroblast (NFF) cell line; settings: NFF_NS1 screen at 5 µg/mL

Row | Structure (SMILES) | T.vaginalis_%inb_Rep1 [1] [%] | T.vaginalis_%inb_Rep2 [1] [%] | NFF_Activity ([2]; NFF cells) | T.vaginalis_%inb_Rep1 ([1]; HTS) [%] | T.vaginalis_Absorbance_Rep1 ([1]; HTS) | T.vaginalis_%inb_Rep2 ([1]; HTS) [%] | T.vaginalis_Absorbance_Rep2 ([1]; HTS) | NFF_Activity [2]
1 | COC(=O)c1cc(O)cc(OC)c1C(=O)c1c(O)cc(C)cc1O [BIA-S1089] | 9.49 | 14.81 | A (active (A) compounds having >25% inhibitory activity) | – | – | – | – | –
2 | COC1=C(N)C(=O)c2nc(-c3nc(C(=O)O)c(C)c(-c4ccc(OC)c(OC)c4O)c3N)ccc2C1=O [BIA-S1107] | 76.72 | 90.80 | A (active (A) compounds having >25% inhibitory activity) | – | – | – | – | –
3 | CN(N=O)C(=O)N[C@@H]1[C@@H](O)[C@H](O)[C@@H](CO)O[C@@H]1O [BIA-S1186] | 9.02 | 7.62 | I (otherwise these were reported as inactive (I)) | – | – | – | – | –
4 | COc1cc2c(c3oc4cccc(O)c4c(=O)c13)[C@@H]1C=CO[C@@H]1O2 [BIA-S1213] | 10.12 | 14.32 | I (otherwise these were reported as inactive (I)) | – | – | – | – | –
5 | Nc1ncnc2c1ncn2[C@@H]1O[C@H](C[C@@H](N)CC[C@H](N)C(=O)O)[C@@H](O)[C@H]1O [BIA-S1376] | 11.43 | 25.29 | I (otherwise these were reported as inactive (I)) | – | – | – | – | –
6 | CN(C)[C@@H]1C(=O)C(C(N)=O)=C(O)[C@@]2(O)C(=O)C3=C(O)c4c(O)cccc4C[C@H]3C[C@@H]12.Cl [BIA-S1534] | 5.02 | 3.66 | I (otherwise these were reported as inactive (I)) | – | – | – | – | –
7 | Cc1cc(O)c2c(c1)C(=O)c1c(c(O)cc(O)c1-c1c(O)cc(O)c3c1C(=O)c1cc(C)cc(O)c1C3=O)C2=O [BIA-S1662] | 9.89 | 5.90 | I (otherwise these were reported as inactive (I)) | – | – | – | – | –
8 | O=C1NCc2nc3ccccc3c(=O)n2-c2ccccc21 [BIA-S1678] | 10.85 | 12.61 | I (otherwise these were reported as inactive (I)) | – | – | – | – | –
9 | COc1cc(/C=C/C(=O)O)cc(OC)c1O [BIA-S1730] | 9.02 | 14.02 | I (otherwise these were reported as inactive (I)) | – | – | – | – | –
10 | Cc1cc(O)c(C=O)c2c1C(=O)Oc1c(CO)c(O)c3c(c1O2)C(O)OC3=O (stereo not drawn) [BIA-S1741] | 17.25 | 7.43 | I (otherwise these were reported as inactive (I)) | – | – | – | – | –
11 | CC1(C)C=Cc2c(ccc3ccc(=O)oc23)O1 [BIA-S1776] | 12.88 | 13.28 | I (otherwise these were reported as inactive (I)) | – | – | – | – | –
12 | CSC[S@@+]([O-])CC(CO)NC(=O)/C=C/c1c(C)[nH]c(=O)[nH]c1=O (stereo partly drawn) [BIA-S1798] | 68.56 | 88.33 | A (active (A) compounds having >25% inhibitory activity) | – | – | – | – | –
13 | O=C1C=C2C=C[C@@H]3C[C@@]2(O1)[C@H]1CCCCN31 [BIA-S1947] | 7.81 | 10.30 | I (otherwise these were reported as inactive (I)) | – | – | – | – | –
14 | CC(=O)Nc1c2sscc-2n(C)c1=O [BIA-T1138] | 100.00 | 97.56 | A (active (A) compounds having >25% inhibitory activity) | – | – | – | – | –
15 | COc1cc(-c2ccc(O)cc2)c(OC)c(O)c1-c1ccc(O)cc1 [BIA-T1200] | 9.75 | 14.63 | I (otherwise these were reported as inactive (I)) | – | – | – | – | –
16 | CC[C@H](C)[C@@H]1NC(=O)C(C(C)=O)=C1O [BIA-T1277] | 8.60 | 14.81 | I (otherwise these were reported as inactive (I)) | – | – | – | – | –
17 | CC[C@H]1C[C@@H]2CC[C@@H](O2)[C@@H](C)C(=O)O[C@H](CC)C[C@H]2CC[C@H](O2)[C@H](C)C(=O)O[C@@H](CC)C[C@@H]2CC[C@@H](O2)[C@@H](C)C(=O)O[C@H](CC)C[C@H]2CC[C@H](O2)[C@H](C)C(=O)O1 [BIA-T1287] | 8.97 | 15.05 | I (otherwise these were reported as inactive (I)) | – | – | – | – | –
18 | CCC1OC(=O)C(C)C(=O)C(C)C(OC2OC(C)CC(N(C)C)C2O)C(C)(OC)CC(C)C(=O)C(C)C2N(CCCCn3cnc(-c4cccnc4)c3)C(=O)OC12C (stereo not drawn) [BIA-T1316] | 0.94 | 5.97 | I (otherwise these were reported as inactive (I)) | – | – | – | – | –

Row | Structure (SMILES) | T.vaginalis_%inb_Rep1 [1] [%] | T.vaginalis_%inb_Rep2 [1] [%] | NFF_Activity ([2]; NFF cells) | T.vaginalis_%inb_Rep1 ([1]; HTS) [%] | T.vaginalis_Absorbance_Rep1 ([1]; HTS) | T.vaginalis_%inb_Rep2 ([1]; HTS) [%] | T.vaginalis_Absorbance_Rep2 ([1]; HTS) | NFF_Activity [2]
19 | CCCCCCCCCCC[C@@H](C[C@@H]1OC(=O)[C@H]1CCCCCC)OC(=O)[C@H](CC(C)C)NC=O [BIA-T1320] | 10.91 | 19.44 | I (otherwise these were reported as inactive (I)) | – | – | – | – | –
20 | CO[C@H]1C[C@@H]2CC[C@@H](C)[C@@](O)(O2)C(=O)C(=O)N2CCCC[C@H]2C(=O)O[C@H]([C@H](C)C[C@@H]2CC[C@@H](OC(=O)C(C)(CO)CO)[C@H](OC)C2)CC(=O)[C@H](C)/C=C(\C)[C@@H](O)[C@@H](OC)C(=O)[C@H](C)C[C@H](C)/C=C/C=C/C=C/1C [BIA-T1386] | 7.60 | 9.14 | I (otherwise these were reported as inactive (I)) | – | – | – | – | –
21 | C/C=C/C1=CC(=O)[C@@H](O)[C@@H]1O [BIA-T1408] | 6.82 | 13.71 | I (otherwise these were reported as inactive (I)) | – | – | – | – | –
22 | C=C[C@@](C)(CCC=C(C)C)c1ccc2c3c(c[nH]c13)C[C@@H](CO)NC(=O)[C@H](C(C)C)N2C [BIA-T1429] | 11.80 | 16.64 | I (otherwise these were reported as inactive (I)) | – | – | – | – | –
23 | CS(=O)(=O)c1ccc([C@@H](O)[C@@H](CO)NC(=O)C(Cl)Cl)cc1 [BIA-T1486] | 8.02 | 12.00 | I (otherwise these were reported as inactive (I)) | – | – | – | – | –
24 | CCCCCCCCCCCCCC(=O)N[C@H]1CCOC1=O [BIA-T1499] | 6.40 | 13.16 | I (otherwise these were reported as inactive (I)) | – | – | – | – | –
25 | CC[C@@H](C)/C=C(C)/C=C/C(=O)c1c(O)c(-c2ccc(O)cc2)cn(O)c1=O [BIA-T1566] | 8.55 | 14.93 | I (otherwise these were reported as inactive (I)) | – | – | – | – | –
26 | CC1=C(O)C(=O)[C@@H]2O[C@@H]2C1=O [BIA-T1695] | 9.91 | 12.25 | A (active (A) compounds having >25% inhibitory activity) | – | – | – | – | –
27 | CC1=C[C@H]2O[C@@H]3[C@H](O)[C@@H](O)[C@](C)([C@@]2(CO)C[C@@H]1O)[C@]31CO1 [BIA-T1932] | 10.49 | 13.71 | I (otherwise these were reported as inactive (I)) | – | – | – | – | –
28 | CC(=O)OC[C@]12C[C@H](OC(=O)CC(C)C)C(C)=C[C@H]1O[C@@H]1[C@H](O)[C@@H](OC(C)=O)[C@@]2(C)[C@]12CO2 [BIA-T1933] | 5.61 | 2.80 | I (otherwise these were reported as inactive (I)) | – | – | – | – | –
29 | CC1=C[C@H]2O[C@@H]3[C@H](O)[C@@H](O)[C@](C)([C@@]2(CO)C[C@@H]1OC(=O)CC(C)C)[C@]31CO1 [BIA-T1934] | 10.70 | 12.37 | I (otherwise these were reported as inactive (I)) | – | – | – | – | –
30 | CO[C@@H]1[C@@H](O)[C@@H](O)[C@@H](Oc2ccc3c(O)c(NC(=O)c4ccc(O)c(CC=C(C)C)c4)c(=O)oc3c2C)OC1(C)C [Descarbamylnovobiocin] | – | – | – | 9.75 | 0.89 | 9.69 | 0.754 | I (otherwise these were reported as inactive (I))
31 | COc1c(O)c2c(=O)cc3c4c5c(cc(=O)c6c(O)c(OC)c(C[C@H](C)OC(C)=O)c(c(c1C[C@H](C)OC(C)=O)c24)c65)OCO3 [Diacetylcercosporin] | – | – | – | 12.65 | 0.944 | 14.53 | 0.821 | A (active (A) compounds having >25% inhibitory activity)
32 | CCCCCCCCCCCC(=O)N[C@H]1CCOC1=O [Dodecanoyl-L-homoserine lactone] | – | – | – | 9.75 | 0.89 | 12.87 | 0.798 | I (otherwise these were reported as inactive (I))
33 | COC12c3c(C)cc(O)c4c(=O)occ(c34)C(=O)C1C13COC(=O)c4c(O)cc(C)c(c41)C(=O)C2C3OC(C)=O (stereo not drawn) [Duclauxin] | – | – | – | 14.59 | 0.98 | 17.79 | 0.866 | I (otherwise these were reported as inactive (I))
34 | CC[C@H](C)[C@H]1O[C@]2(C=C[C@@H]1C)C[C@@H]1C[C@@H](C/C=C(\C)[C@@H](O[C@H]3C[C@H](OC)[C@@H](O[C@H]4C[C@H](OC)[C@H](NC)[C@H](C)O4)[C@H](C)O3)[C@@H](C)/C=C/C=C3\CO[C@@H]4[C@H](O)C(C)=C[C@@H](C(=O)O1)[C@]34O)O2 [Emamectin B1a] | – | – | – | 15.19 | 0.991 | 5.71 | 0.699 | A (active (A) compounds having >25% inhibitory activity)
35 | C/C=C/[C@@H]1C=C[C@@H]2C[C@H](C)CC[C@H]2[C@]1(C)/C(O)=C1/C(=O)[C@@H](CO)N(C)C1=O [Epiequisetin] | – | – | – | 11.85 | 0.929 | 4.34 | 0.68 | I (otherwise these were reported as inactive (I))
